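Dose response: 5 concentrations. Exposure: 48 h. Format: 96-well plates. Endpoint: linear interpolation; highest concentration if not reached. The concentration for 50% growth inhibition is given as GI50.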 Activity calls are given as the source filed them. Rule as the data show it: active = GI50 up to about 1.1 µM and inactive = higher.
What was measured:
Assay in all cases: inhibition of tumour cell growth, NCI panel, 48 h
DMS-273 = test system: DMS-273
SW-620 = test system: SW-620
SK-MEL-28 = test system: SK-MEL-28
SF-268 = test system: SF-268
HL-60 = test system: HL-60
SK-OV-3 = test system: SK-OV-3
U-251 = test system: U-251
SR = test system: SR
Malme-3M = test system: Malme-3M
786-0 = test system: 786-0
HOP-18 = test system: HOP-18
SNB-75 = test system: SNB-75
HOP-92 = test system: HOP-92
XF498 = test system: XF498
OVCAR-4 = test system: OVCAR-4
SF-539 = test system: SF-539
M19-MEL = test system: M19-MEL
TK-10 = test system: TK-10
HT-29 = test system: HT-29
KM12 = test system: KM12
UO-31 = test system: UO-31
UACC-257 = test system: UACC-257
OVCAR-3 = test system: OVCAR-3
A549 = test system: A549
EKVX = test system: EKVX
HCT-15 = test system: HCT-15
CAKI-1 = test system: CAKI-1
M14 = test system: M14
ACHN = test system: ACHN
LXFL 529 = test system: LXFL 529
RPMI-8226 = test system: RPMI-8226
LOX IMVI = test system: LOX IMVI
SF-295 = test system: SF-295
NCI-H23 = test system: NCI-H23
OVCAR-8 = test system: OVCAR-8
NCI-H460 = test system: NCI-H460
NCI-H522 = test system: NCI-H522
NCI-H226 = test system: NCI-H226
COLO 205 = test system: COLO 205
DLD-1 = test system: DLD-1
SNB-78 = test system: SNB-78
SK-MEL-5 = test system: SK-MEL-5
IGROV-1 = test system: IGROV-1
DMS-114 = test system: DMS-114
K562 = test system: K562
SN12C = test system: SN12C
OVCAR-5 = test system: OVCAR-5
CCRF-CEM = test system: CCRF-CEM
SNB-19 = test system: SNB-19
KM-20L2 = test system: KM-20L2
SK-MEL-2 = test system: SK-MEL-2
HCC 2998 = test system: HCC 2998
A498 = test system: A498
UACC-62 = test system: UACC-62
HCT-116 = test system: HCT-116
MOLT-4 = test system: MOLT-4

Question: Which results are given for `C=Nc1ccc([N+](=O)[O-])cc1`?
Answer: GI50 (DMS-273): > 100 µM (inactive); GI50 (SW-620): > 63.8 µM (inactive); GI50 (SK-MEL-28): > 100 µM (inactive); GI50 (SF-268): > 100 µM (inactive); GI50 (HL-60): > 62.7 µM (inactive); GI50 (SK-OV-3): > 100 µM (inactive); GI50 (U-251): > 100 µM (inactive); GI50 (SR): > 41.5 µM (inactive); GI50 (Malme-3M): > 100 µM (inactive); GI50 (786-0): > 100 µM (inactive); GI50 (HOP-18): > 26.1 µM (inactive); GI50 (SNB-75): > 100 µM (inactive); GI50 (HOP-92): > 100 µM (inactive); GI50 (XF498): > 100 µM (inactive); GI50 (OVCAR-4): > 100 µM (inactive); GI50 (SF-539): > 100 µM (inactive); GI50 (M19-MEL): > 100 µM (inactive); GI50 (TK-10): > 100 µM (inactive); GI50 (HT-29): > 100 µM (inactive); GI50 (KM12): > 100 µM (inactive); GI50 (UO-31): > 84.9 µM (inactive); GI50 (UACC-257): > 100 µM (inactive); GI50 (OVCAR-3): > 100 µM (inactive); GI50 (A549): > 100 µM (inactive); GI50 (EKVX): > 100 µM (inactive); GI50 (HCT-15): > 60.1 µM; GI50 (CAKI-1): > 100 µM (inactive); GI50 (M14): > 100 µM (inactive); GI50 (ACHN): > 100 µM (inactive); GI50 (LXFL 529): > 72.8 µM (inactive); GI50 (RPMI-8226): > 31.6 µM (inactive); GI50 (LOX IMVI): 43.5 µM (inactive); GI50 (SF-295): > 100 µM (inactive); GI50 (NCI-H23): > 100 µM (inactive); GI50 (OVCAR-8): > 100 µM (inactive); GI50 (NCI-H460): > 59.4 µM (inactive); GI50 (NCI-H522): > 100 µM (inactive); GI50 (NCI-H226): > 100 µM (inactive); GI50 (COLO 205): > 100 µM (inactive); GI50 (DLD-1): > 100 µM (inactive); GI50 (SNB-78): > 100 µM (inactive); GI50 (SK-MEL-5): > 100 µM (inactive); GI50 (IGROV-1): > 100 µM (inactive); GI50 (DMS-114): > 100 µM (inactive); GI50 (K562): > 44.6 µM (inactive); GI50 (SN12C): > 65.3 µM (inactive); GI50 (OVCAR-5): > 100 µM (inactive); GI50 (CCRF-CEM): > 63.1 µM (inactive); GI50 (SNB-19): > 100 µM (inactive); GI50 (KM-20L2): > 100 µM (inactive); GI50 (SK-MEL-2): > 100 µM (inactive); GI50 (HCC 2998): > 100 µM (inactive); GI50 (A498): > 100 µM (inactive); GI50 (UACC-62): > 84.5 µM (inactive); GI50 (HCT-116): > 100 µM (inactive); GI50 (MOLT-4): > 100 µM (inactive)
